Results: patent publication US20060263346A1, “Combined pharmaceutical preparations for the treatment of cancer, containing glutaminase and antineoplastic anthracyclines or platinum compounds” (priority 2003, published 2006)

Assays:
Assay type in all cases: cell-based
[1] = test system: breast tumor (MCF7) cells; experiment: Sulforhodamine in vitro cell growth test, breast tumor cells MCF7; details: 48 h
Procedure: (§1) Cell lines from tumors of the breast (MCF7), lung (NCI-H460, A549), colon (SW-60, HT29) and CNS (SF-539) were used for the test. The tumor cells were cultured in RPMI 1640 medium containing 7.5% foetal calf serum at 37° C. and 5% CO2. After the cells had grown for 24 hours, they were incubated with the substances to be tested for 48 hours.
(§2) The antineoplastic agents used for the experiments were obtained from Sigma in cell culture quality.
(§3) A Pseudomonas 7A glutaminase-asparaginase modified with polyethylene glycol (DE 41 40 003 A1, WO 94/13817 A1 and WO 02/31498 A2) was used as the glutaminase.
(§4) After a 48 hour incubation period cell growth was determined by means of the absorption of the bound sulforhodamine dye at 575 nm. The percentage growth was calculated as follows: [formula] in which PW denotes percentage growth, C denotes untreated control cells, T denotes the amount of treated cells and the indices 0 and t denote the amount of cells at time 0 and after 48 hours.

lung tumor (A549) cells = experiment: Sulforhodamine in vitro cell growth test, lung tumor cells A549; details: 48 h
Procedure: as §1, §2, §3, §4

colon tumor (HT29) cells = experiment: Sulforhodamine in vitro cell growth test, colon tumor cells HT29; details: 2 μg/ml cis-platinum alone, 48 h
Procedure: as §1, §2, §3, §4

[2] = test system: lung tumor (NCI-H23) cells; experiment: Sulforhodamine in vitro cell growth test, lung tumor cells NCI-H23; details: 48 h
Procedure: as §1, §2, §3, §4

Q: With `CO[C@@]12[C@H](COC(N)=O)C3=C(C(=O)C(C)=C(N)C3=O)N1C[C@@H]1N[C@@H]12` [Mitomycin, mitomycin] as the compound, how does the “growth compared to the control” value ([1]; 0.026 μg/ml mitomycin alone) read?
A: 66%

Q: For `N.N.[Cl][Pt][Cl]` [Cis-platinum, cis-platinum], which tumor cell growth ([1]; 2 μg/ml cis-platinum alone) is on record?
A: 86%

Q: What about the tumor cell growth (lung tumor (A549) cells; 2 μg/ml cis-platinum alone) of the same compound?
A: 41%

Q: And the tumor cell growth (colon tumor (HT29) cells)?
A: 65%

Q: Which tumor growth ([2]; 68 μg/ml melphalan alone) does the source give for `N[C@@H](Cc1ccc(N(CCCl)CCCl)cc1)C(=O)O` [Melphalan, melphalan] here?
A: 34%

Q: How did the “growth compared to the control” value ([1]; 2.3 μg/ml etoposide alone) turn out when `COc1cc([C@@H]2c3cc4c(cc3[C@@H](O[C@@H]3O[C@@H]5CO[C@@H](C)O[C@H]5[C@H](O)[C@H]3O)[C@H]3COC(=O)[C@H]23)OCO4)cc(OC)c1O` [Etoposide, etoposide] was run?
A: about 40%

Q: What about the “growth compared to the control” value (lung tumor (A549) cells; 2.3 μg/ml etoposide alone) of the same compound?
A: about 40%

Q: What about the “growth compared to the control” value ([2]; 2.3 μg/ml etoposide alone) of the same compound?
A: about 40%
